Measured values reported in patent US20220128545A1, “METHODS AND COMPOSITIONS FOR ANALYZING PLATELETS BY MASS CYTOMETRY” (Children's Medical Center Corporation, priority 2018, published 2022).
Where two headings read alike, the source gives them in different places. Bridge positions count the residues as written; N and C are the ends. Square brackets hold non-standard residues; d marks the D form. Peptide text beside a SMILES is read from it. hArg = N=C(N)NCCCC[C@H](N)C(=O)O; Mpa = O=C(O)CCS

What was measured:
[1] = molecular target: T1, activated integrin αIIbβ3 (Homo sapiens, UniProt P05106+P08514); experiment: Specificity of in-house metal-tagged PAC1 for integrin αIIbβ3 (agonist stimulation, eptifibatide blockade) by MC; assay type: cell-based; details: whole blood; for Platelet surface activated αIIbβ3 expression compared with unstimulated controls: 200 μM agonist, PAC1-159Tb
T1 construct: endogenous in cells; host or cells: platelets in citrate-anticoagulated human whole blood
Description: FIG. 6. depicts measuring the specificity of in-house metal-tagged PAC1 for integrin αIIbβ3. […] Samples were fixed in 1% formaldehyde and analyzed by MC. […] Statistical analysis: 1-way ANOVA was used in conjunction with a Bonferroni post-test (with all results compared to the MMI achieved with agonist stimulation) to indicate statistical significance; **P<0.01 and ***P<0.001.
(§1) A panel of metal-labeled antibodies directed against platelet antigens of interest was assembled (FIG. 1A). Antibody clones were well-characterized, widely used and purchased from reputable vendors. Platelets in whole blood were reacted with the panel (containing anti-CD9-171Yb, anti-CD29-176Yb, anti-CD31-145Nd, anti-CD36-150Nd, anti-CD42a-155Gd, anti-CD42b-163Dy, anti-CD41-149Sm, anti-CD62P-172Yb, anti-CD61-165Ho, anti-CD63-161Dy, anti-CD107a-166Er, anti-CD154-154Sm, anti-GPVI-152Sm and anti-PAC1-159Tb; see FIG. 1A, Materials, and Table 1 for antibody information) in the presence of vehicle (HT-BSA), TRAP or ADP at the indicated concentrations for 30 minutes (FIG. 1B). Samples were fixed in 1% formaldehyde/HEPES-saline solution containing 125 nM Iridium 191/193 Cell-ID DNA Intercalator for 30 minutes. […] Samples were passed through a 35 μm cell-strainer (Corning Inc, Corning, N.Y.) and analyzed on a Helios Mass Cytometer (Fluidigm Corporation, San Francisco, Calif.; FIG. 1C). […]
To compare the MC and FFC platforms for platelet analysis a novel metal-tagged MC antibody panel was designed to target well-established surface markers on platelets (FIG. 1A, Table 1) including platelet surface P-selectin (monitored with anti-CD62P-172Yb) and platelet surface activated integrin αIIbβ3 (monitored with the activation-dependent monoclonal antibody PAC1, labeled in-house with 159Tb). The specificity of PAC1-159Tb for activated αIIbβ3 was assessed by its dependence on platelet activation for binding and by its blockade by the αIIbβ3 inhibitor, eptifibatide (FIG. 6A-6B).

[2] = test system: platelet surface activated integrin αIIbβ3; experiment: cells; assay type: cell-based, human
Protocol: (§2) FIGS. 2A-2D depict a comparison of MC and FFC platforms for measurement of agonist-stimulated integrin αIIbβ3 activation (PAC1) and P-selectin expression (CD62P) on platelets. Citrate-anticoagulated blood from 3 separate healthy donors was treated with vehicle or the indicated concentrations of ADP (A, B) or thrombin receptor activating peptide (TRAP) (C, D); for 30 minutes in the presence of PAC1-FITC or […] antibodies to assess integrin αIIbβ3 activation (A, C) and CD62P-PE or CD62P-172Yb antibodies to assess a-granule secretion (B, D). Samples were fixed in 1% formaldehyde and analyzed by MC or FFC. Data were analyzed using a non-linear fit of log agonist vs. response; variable slope in GraphPad Prism 5. Results are expressed as a percentage of mean metal intensity (MMI; MC readout) or the mean fluorescence intensity (MFI; FFC readout) achieved with 200 μM adenosine diphosphate (ADP) or TRAP, respectively (means±SEM; n=2/3, with n=2 accounting for the linear region of the TRAP dose-response [concentrations 1.5-3.5 μM] and n=3 accounting for all other concentrations [0-1 μM & 5-200 μM]).
(§3) Blood was collected by venipuncture with a 21-gauge butterfly needle into evacuated tubes containing 3.2% sodium citrate. Blood was drawn from healthy volunteers or GT patients who were free from antiplatelet agents and non-steroidal anti-inflammatory drugs for 10 days prior to the donation. The blood draws were performed by the same phlebotomist. Complete blood cell counts were performed in a Sysmex XN-1000 Hematology Analyzer.
(§4) Whole blood FFC analysis of platelet activation was performed as previously described. Three color analysis was performed using two cocktails of fluorescently labeled antibodies: PE-conjugated anti-CD62P, FITC-conjugated PAC1 (directed against the high affinity conformation of integrin αIIbβ3) and PE-Cy5-conjugated anti-CD42b; or PE-conjugated anti-CD41a, FITC-conjugated anti-CD61 and PE-Cy5-conjugated anti-CD42b (see Table 2 for antibody information). Citrate-anticoagulated whole blood was treated with vehicle, TRAP or ADP at the indicated concentrations in the presence of the appropriate fluorescently labeled antibody cocktail for 30 minutes at ambient temperature. Samples were fixed in 1% formaldehyde/HEPES-saline buffer for 30 minutes prior to analysis in a FACSCalibur flow cytometer (BD Biosciences, San Jose, Calif.). Platelets were gated based on forward light scatter, side light scatter and CD42b expression (see FIG. 8 for FFC platelet gating strategy). A total of 15,000 platelet events per sample were collected. […]
(§5) Data were analyzed using GraphPad version 5.0 software (GraphPad Software, La Jolla, Calif.) and are presented as mean±standard error of the mean. […]

[3] = test system: platelet surface P-selectin (CD62P); experiment: cells; assay type: cell-based, human
Protocol: as §2, §3, §4, §5

[4] = test system: platelets in whole blood; experiment: MC panel of 12 additional platelet surface markers during TRAP or ADP stimulation; assay type: cell-based, human; details: 30 minutes; for Platelet surface CD41, CD61, CD63, CD9, CD107a and CD154 / Platelet surface CD42a and CD42b: agonist 0-200 μM; for Surface plasma membrane levels of CD31, CD36, CD29 and GPVI: varying agonist concentrations
Protocol: Citrate-anticoagulated blood from the same 3 separate healthy donors in FIGS. 2A-2D was simultaneously treated with vehicle or the indicated concentrations of TRAP (A) or ADP (B) for 30 minutes in the presence of a custom platelet-specific, metal-tagged antibody panel. This panel contained antibodies directed against CD41, CD61, CD63, CD9, CD107a, CD154, CD42a, CD42b, CD31, CD36, CD29 and GPVI. Samples were fixed in 1% formaldehyde and analyzed by MC. Data were analyzed using a non-linear fit of log agonist vs. response; variable slope or linear regression in GraphPad Prism 5. Results are expressed as a percentage of the mean metal intensity (MMI) achieved with 200 μM ADP or TRAP (means±SEM; n=2/3, with n=2 accounting for the linear region of the TRAP dose-response [concentrations 1.5-3.5 μM)] and n=3 accounting for all other concentrations [0-1 μM and 5-200 μM]). Statistical analysis: 1-way ANOVA was used in conjunction with a Dunnett multiple comparison test (all results compared to vehicle control) to indicate statistical significance; *P<0.05, **P<0.01 and ***P<0.001. Abbreviations: ADP, adenosine diphosphate; FFC, fluorescence flow cytometry; MC, mass cytometry; TRAP, thrombin receptor activating peptide.
A panel of metal-labeled antibodies directed against platelet antigens of interest was assembled (FIG. 1A). Antibody clones were well-characterized, widely used and purchased from reputable vendors. Platelets in whole blood were reacted with the panel (containing anti-CD9-171Yb, anti-CD29-176Yb, anti-CD31-145Nd, anti-CD36-150Nd, anti-CD42a-155Gd, anti-CD42b-163Dy, anti-CD41-149Sm, anti-CD62P-172Yb, anti-CD61-165Ho, anti-CD63-161Dy, anti-CD107a-166Er, anti-CD154-154Sm, anti-GPVI-152Sm and anti-PAC1-159Tb; see FIG. 1A, Materials, and Table 1 for antibody information) in the presence of vehicle (HT-BSA), TRAP or ADP at the indicated concentrations for 30 minutes (FIG. 1B). Samples were fixed in 1% formaldehyde/HEPES-saline solution containing 125 nM Iridium 191/193 Cell-ID DNA Intercalator for 30 minutes. Cells were washed two times in MilliQ deionized H2O to remove salts and resuspended in 0.5 mL of MilliQ deionized H20 containing EQ Four Element Calibration Beads (1:10 v/v [33,000 beads/mL]). Samples were passed through a 35 μm cell-strainer (Corning Inc, Corning, N.Y.) and analyzed on a Helios Mass Cytometer (Fluidigm Corporation, San Francisco, Calif.; FIG. 1C). Cell events were acquired at 300-500 events per second and >30,000 events were acquired in total. Platelets were gated based on DNA content (DNA-low) and CD41/CD61 expression (see FIG. 8 for the MC platelet gating strategy). High-dimensional analyses of platelet subpopulations were carried out using the visual stochastic neighbor embedding (viSNE) cluster analysis function in CYTOBANK™ software (www.cytobank.org). Experiments were carried out by the same scientist and all reagents were from the same lot.

[5] = test system: platelet surface activated integrin αIIbβ3; experiment: cells; assay type: cell-based, human; remark: listed apart in the source
Protocol: as §2, §3, §1, §5

[6] = test system: platelet surface P-selectin (CD62P); experiment: cells; assay type: cell-based, human; remark: listed apart in the source
Protocol: as §2, §3, §1, §5

T1 sequence (P08514 32-887 limits assumed): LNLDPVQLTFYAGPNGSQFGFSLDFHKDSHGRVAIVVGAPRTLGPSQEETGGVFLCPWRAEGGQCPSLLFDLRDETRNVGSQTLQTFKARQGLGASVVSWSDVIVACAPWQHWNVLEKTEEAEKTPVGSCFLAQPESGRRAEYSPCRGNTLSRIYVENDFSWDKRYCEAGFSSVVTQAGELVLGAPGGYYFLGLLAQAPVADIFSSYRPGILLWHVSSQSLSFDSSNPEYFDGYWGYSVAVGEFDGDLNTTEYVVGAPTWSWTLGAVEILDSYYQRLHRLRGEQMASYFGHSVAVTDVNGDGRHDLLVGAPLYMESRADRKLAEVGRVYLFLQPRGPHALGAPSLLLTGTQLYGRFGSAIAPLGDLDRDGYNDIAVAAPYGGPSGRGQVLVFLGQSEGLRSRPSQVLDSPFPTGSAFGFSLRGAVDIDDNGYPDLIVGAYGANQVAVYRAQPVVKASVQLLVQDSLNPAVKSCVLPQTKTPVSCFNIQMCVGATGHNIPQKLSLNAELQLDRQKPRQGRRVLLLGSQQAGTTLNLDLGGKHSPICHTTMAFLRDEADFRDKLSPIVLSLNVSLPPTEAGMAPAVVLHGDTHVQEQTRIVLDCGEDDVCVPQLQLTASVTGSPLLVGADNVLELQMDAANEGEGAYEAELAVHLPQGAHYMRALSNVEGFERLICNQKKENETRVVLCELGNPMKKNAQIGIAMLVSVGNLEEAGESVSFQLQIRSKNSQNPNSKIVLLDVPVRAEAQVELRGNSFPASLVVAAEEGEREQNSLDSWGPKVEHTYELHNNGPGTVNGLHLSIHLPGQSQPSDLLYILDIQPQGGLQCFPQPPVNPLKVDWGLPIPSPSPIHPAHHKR
T1 sequence (P08514 891-1039 limits assumed): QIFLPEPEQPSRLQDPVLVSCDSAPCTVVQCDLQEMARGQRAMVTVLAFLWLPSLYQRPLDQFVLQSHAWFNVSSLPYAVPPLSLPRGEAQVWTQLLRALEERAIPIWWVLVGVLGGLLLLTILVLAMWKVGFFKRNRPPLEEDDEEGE
T1 sequence (P05106 27-788): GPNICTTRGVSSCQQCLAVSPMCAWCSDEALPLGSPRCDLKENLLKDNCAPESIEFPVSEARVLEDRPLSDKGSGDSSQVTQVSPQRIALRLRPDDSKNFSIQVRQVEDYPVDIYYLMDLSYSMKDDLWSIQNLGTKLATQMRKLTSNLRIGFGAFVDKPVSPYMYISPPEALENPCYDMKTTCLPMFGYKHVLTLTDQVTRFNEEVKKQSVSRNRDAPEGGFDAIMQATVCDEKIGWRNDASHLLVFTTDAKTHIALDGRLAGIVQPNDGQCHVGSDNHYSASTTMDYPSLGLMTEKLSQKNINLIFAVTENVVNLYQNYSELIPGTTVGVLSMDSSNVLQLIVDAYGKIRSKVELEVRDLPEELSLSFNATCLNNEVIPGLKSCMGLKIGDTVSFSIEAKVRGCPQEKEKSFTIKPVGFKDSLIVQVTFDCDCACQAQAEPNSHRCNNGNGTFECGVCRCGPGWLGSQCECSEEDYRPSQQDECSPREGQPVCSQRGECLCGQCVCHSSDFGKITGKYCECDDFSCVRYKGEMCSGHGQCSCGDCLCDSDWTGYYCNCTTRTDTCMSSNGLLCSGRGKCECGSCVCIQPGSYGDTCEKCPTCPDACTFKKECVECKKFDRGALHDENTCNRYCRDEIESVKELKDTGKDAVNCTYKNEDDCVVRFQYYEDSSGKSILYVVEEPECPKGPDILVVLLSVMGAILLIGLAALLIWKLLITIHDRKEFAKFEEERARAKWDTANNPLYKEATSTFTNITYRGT

Platelet surface activated αIIbβ3 expression compared with unstimulated controls [1] | EC50 [2] | EC50 [3] | EC50 [5] | EC50 [6] | Blockade of anti-PAC1-159Tb binding to activated integrin αIIbβ3 ([1]; eptifibatide 2.5 μg/mL, following TRAP/ADP (200 μM) stimulation) | SMILES | Platelet surface CD41, CD61, CD63, CD9, CD107a and CD154 [4] | Platelet surface CD42a and CD42b [4] | Surface plasma membrane levels of CD31, CD36, CD29 and GPVI [4] | EC50 ([2]; Homo sapiens, Platelet, 0.5 h, FFC, anti-PAC1-FITC, citrate whole blood of healthy donors, 30 minutes, read-out: EC50 for agonist-induced platelet surface activated αIIbβ3) | EC50 ([3]; Homo sapiens, Platelet, 0.5 h, FFC, CD62P-PE, citrate whole blood of healthy donors, 30 minutes, read-out: EC50 for agonist-induced platelet surface P-selectin expression) | EC50 ([5]; Homo sapiens, Platelet, 0.5 h, MC, anti-PAC1-159Tb, citrate whole blood of healthy donors, 30 minutes, read-out: EC50 for agonist-induced platelet surface activated αIIbβ3) | EC50 ([6]; Homo sapiens, Platelet, 0.5 h, MC, CD62P-172Yb, citrate whole blood of healthy donors, 30 minutes, read-out: EC50 for agonist-induced platelet surface P-selectin expression)
significantly elevated | 2100 nM | 2300 nM | 3700 nM | 3400 nM | – | CC(C)C[C@H](NC(=O)[C@H](CC(C)C)NC(=O)[C@H](Cc1ccccc1)NC(=O)[C@@H](N)CO)C(=O)N[C@@H](CCCNC(=N)N)C(=O)N[C@@H](CC(N)=O)C(N)=O [TRAP, SFLLRN-NH2] | elevated in a dose-dependent manner | trend to be dose-dependently decreased | remained constant | – | – | – | –
– | – | – | – | – | completely blocked | N=C(N)NCCCC[C@@H]1NC(=O)CCSSC[C@@H](C(N)=O)NC(=O)[C@@H]2CCCN2C(=O)[C@H](Cc2c[nH]c3ccccc23)NC(=O)[C@H](CC(=O)O)NC(=O)CNC1=O [eptifibatide] ([Mpa][hArg]GDWPC-NH2; disulfide 1-7) | – | – | – | – | – | – | –
significantly elevated | – | – | – | – | – | Nc1ncnc2c1ncn2[C@@H]1O[C@H](COP(=O)(O)OP(=O)(O)O)[C@@H](O)[C@H]1O [ADP, Adenosine 5′-diphosphate] | elevated in a dose-dependent manner | stayed constant | remained constant | 600 nM | 1200 nM | 800 nM | 1300 nM
